Results on 17 compounds are retold here after patent publication US9133115B2 (ACHILLION PHARMACEUTICALS, INC., priority 2008, dated 2015).

The test system of one assay is HCV replicon. The experiment in a line: HCV replicon replication assay (NPT ELISA) in Huh-7 replicon-containing cells. Particulars: Hepatitis C virus, 72 h; HCV replicon in Huh-7 cells, three days incubation; read-out: EC50. The assay is classed as cell-based. In short, it runs like this: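 Replication was scored by capture ELISA of neomycin phosphotransferase, whose level tracks replicon replication, after graded compound treatment. The cells were Huh-7 harbouring an HCV-IRES/neo/EMCV-IRES/NS3–NS5B/3′-NTR replicon, plated at 6000-7500 cells/well and dosed 24 h later at 60-70% confluence; interferon alpha was the positive control.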
(In general: In antiviral work, replicon cells carry a viral genome segment that copies itself.)
Usually EC50 stands for the concentration that produces a half-maximal response. For `C=C[C@@H]1C[C@]1(NC(=O)[C@@H]1C[C@@H](OC(=O)Nc2ccccc2C(=O)OC)CN1C(=O)[C@@H](CC(=O)N1CCCCC1)C(C)(C)C)C(=O)NS(=O)(=O)C1CC1` [Compound 93, methyl 2-(((3R,5S)-1-((S)-2-tert-butyl-4-oxo-4-(piperidin-1-yl)butanoyl)-5-((1R,2S)-1-(cyclo-propylsulfonyl-carbamoyl)-2-vinylcyclopropyl-carbamoyl)pyrrolidin-3-yloxy)carbonyl-amino)benzoate], the 50% effective concentration (EC50) is under 1 µM.

Consider `C=C[C@@H]1C[C@]1(NC(=O)[C@@H]1C[C@@H](NC(=O)n2c3ccccc3c3ccccc32)CN1C(=O)[C@@H](CC(=O)N1CCCC(F)C1)C(C)(C)C)C(=O)NS(=O)(=O)C1CC1` (stereo partly drawn) [Compound 188, N-((3R,5S)-1-((2S)-2-tert-butyl-4-(3-fluoropiperidin-1-yl)-4-oxobutanoyl)-5-((1R,2S)-1-(cyclopropylsulfonyl-carbamoyl)-2-vinyl-cyclopropyl-carbamoyl)pyrrolidin-3-yl)-9H-carbazole-9-carboxamide], for which the half-maximal effective concentration (EC50) is under 1 µM.

In the case of `C=C[C@@H]1C[C@]1(NC(=O)[C@@H]1C[C@@H](Oc2cc(-c3nc(C(C)C)cs3)nc3c(C)c(OC)ccc23)CN1C(=O)[C@@H](CC(=O)N1CCCCC1)C(C)(C)C)C(=O)NS(=O)(=O)C1CC1` [Compound 255, (2S,4R)-1-((S)-2-tert-butyl-4-oxo-4-(piperidin-1-yl)butanoyl)-N-((2S)-1-(cyclopropyl-sulfonylcarbamoyl)-2-vinylcyclopropyl)-4-(2-(4-isopropylthiazol-2-yl)-7-methoxy-8-methylquinolin-4-yloxy)pyrrolidine-2-carboxamide], the EC50 is under 1 µM.

Consider `C=C[C@@H]1C[C@]1(NC(=O)[C@@H]1C[C@@H](NC(=O)n2c3ccccc3c3ccccc32)CN1C(=O)[C@@H](CC(=O)N1CCCC(F)(F)C1)C(C)(C)C)C(=O)NS(=O)(=O)C1CC1` [Compound 178, N-((3R,5S)-1-((S)-2-tert-butyl-4-(3,3-difluoropiperidin-1-yl)-4-oxobutanoyl)-5-((1R,2S)-1-(cyclo-propylsulfonyl-carbamoyl)-2-vinylcyclopropyl-carbamoyl)pyrrolidin-3-yl)-9H-carbazole-9-carboxamide], for which the 50% effective concentration (EC50) is under 1 µM.

Take `COc1ccc2c(O[C@@H]3C[C@@H](C(=O)NC(C)(C)C(=O)NS(=O)(=O)C4CC4)N(C(=O)[C@@H](CC(=O)N4CCCCC4)C(C)(C)C)C3)cc(-c3ccccc3)nc2c1` [Compound 111, (2S,4R)-1-((S)-2-tert-butyl-4-oxo-4-(piperidin-1-yl)butanoyl)-N-(1-(cyclopropane-sulfonamido)-2-methyl-1-oxopropan-2-yl)-4-(7-methoxy-2-phenylquinolin-4-yloxy)pyrrolidine-2-carboxamide]: the EC50 lay within 1 to 10 µM.

Regarding `C=C[C@@H]1C[C@]1(NC(=O)[C@@H]1C[C@@H](Oc2cc(-c3ccccc3)nc3cc(OC)ccc23)CN1C(=O)[C@@H](CC(=O)N1C2CCC1CC(=O)C2)C(C)(C)C)C(=O)NS(=O)(=O)C1CC1` [Compound 169, (2S,4R)-1-((2S)-2-tert-butyl-4-oxo-4-(3-oxo-8-aza-bicyclo[3.2.1]octan-8-yl)butanoyl)-N-((1R,2S)-1-(cyclopropyl-sulfonylcarbamoyl)-2-vinylcyclopropyl)-4-(7-methoxy-2-phenylquinolin-4-yloxy)pyrrolidine-2-carboxamide], the EC50 was under 1 µM.

For the compound `C=C[C@@H]1C[C@]1(NC(=O)[C@@H]1C[C@@H](Oc2cc(-c3ccccc3)nc3cc(OC)ccc23)CN1C(=O)[C@@H](CC(=O)N1CCCCC1)C(C)(C)C)C(=O)NS(=O)(=O)c1ccccc1` [Compound 62, (2S,4R)-1-((S)-2-tert-butyl-4-oxo-4-(piperidin-1-yl)butanoyl)-4-(7-methoxy-2-phenylquinolin-4-yloxy)-N-((1R,2S)-1-(phenylsulfonyl-carbamoyl)-2-vinyl-cyclopropyl)pyr-rolidine-2-carboxamide], the EC50 was under 1 µM.

In the case of `COc1ccc2c(O[C@@H]3C[C@@H](C(=O)N[C@@H](C(=O)NS(=O)(=O)C4CC4)C(C)C)N(C(=O)[C@@H](CC(=O)N4CCCCC4)C(C)(C)C)C3)cc(-c3ccccc3)nc2c1` [Compound 118, (2S,4R)-1-((S)-2-tert-butyl-4-oxo-4-(piperidin-1-yl)butanoyl)-N-((R)-1-(cyclopropanesulfon-amido)-3-methyl-1-oxobutan-2-yl)-4-(7-methoxy-2-phenylquinolin-4-yloxy)pyrrolidine-2-carboxamide], the EC50 lay within 1 to 10 µM.

For `C=CC1C[C@]1(NC(=O)[C@@H]1C[C@@H](Oc2cc(-c3ccccc3)nc3cc(OC)ccc23)CN1C(=O)[C@@H](CC(=O)N1CCN(C(=O)OC(C)(C)C)CC1)C(C)(C)C)C(=O)NS(=O)(=O)C1CC1` (stereo partly drawn) [Compound 164, tert-butyl 4-((S)-3-((2S,4R)-2-((1R,2S)-1-(cyclopropyl-sulfonylcarbamoyl)-2-vinylcyclopropyl-carbamoyl)-4-(7-methoxy-2-phenylquinolin-4-yloxy)pyrrolidine-1-carbonyl)-4,4-dime-thylpentanoyl)piper-azine-1-carboxylate], the 50% effective concentration (EC50) was under 1 µM.

For the compound `C=C[C@@H]1C[C@]1(NC(=O)[C@@H]1C[C@@H](Oc2cc(-c3ccccc3)nc3cc(OC)ccc23)CN1C(=O)[C@@H](CC(=O)N1CCC1c1cccc(OC)c1)C(C)(C)C)C(=O)NS(=O)(=O)C1CC1` (stereo partly drawn) [Compound 228, (2S,4R)-1-((2S)-2-tert-butyl-4-(2-(3-methoxyphenyl)aze-tidin-1-yl)-4-oxobutanoyl)-N-((1R)-1-(cyclopropyl-sulfonylcarbamoyl)-2-vinylcyclopropyl)-4-(7-methoxy-2-phenylquinolin-4-yloxy)pyrrolidine-2-carboxamide], the 50% effective concentration (EC50) is under 1 µM.

As to `C=C[C@@H]1C[C@]1(NC(=O)[C@@H]1C[C@@H](Oc2cc(-c3ccccc3)nc3cc(OC)ccc23)CN1C(=O)[C@@H](CC(=O)N1CCCCCC1)C(C)(C)C)C(=O)NS(=O)(=O)C1CC1` [Compound 77, (2S,4R)-1-((S)-4-(azepan-1-yl)-2-tert-butyl-4-oxobutanoyl)-N-((1R,2S)-1-(cyclopropyl-sulfonylcarbamoyl)-2-vinylcyclopropyl)-4-(7-methoxy-2-phenylquinolin-4-yloxy)pyrrolidine-2-carboxamide], the half-maximal effective concentration (EC50) is under 1 µM.

For the compound `C=C[C@@H]1C[C@]1(NC(=O)[C@@H]1C[C@@H](Oc2cc(-c3ccccc3)nc3cc(OC)ccc23)CN1C(=O)[C@@H](CC(=O)N1CCCCC1c1cc(-c2ccccc2)[nH]n1)C(C)(C)C)C(=O)NS(=O)(=O)C1CC1` (stereo partly drawn) [Compound 232, (2S,4R)-1-((2S)-2-tert-butyl-4-oxo-4-(2-(5-phenyl-1H-pyrazol-3-yl)piperidin-1-yl)butanoyl)-N-((2S)-1-(cyclopropyl-sulfonylcarbamoyl)-2-vinylcyclopropyl)-4-(7-methoxy-2-phenylquinolin-4-yloxy)pyrrolidine-2-carboxamide], the 50% effective concentration (EC50) was under 1 µM.

`C=C[C@@H]1C[C@]1(NC(=O)[C@@H]1C[C@@H](NC(=O)c2cc(-c3ccccc3)nc3ccccc23)CN1C(=O)[C@@H](CC(=O)N1CCCC(F)C1)C(C)(C)C)C(=O)NS(=O)(=O)C1CC1` (stereo partly drawn) [Compound 204, N-((3R,5S)-1-((2S)-2-tert-butyl-4-(3-fluoropiperidin-1-yl)-4-oxobutanoyl)-5-((1R,2S)-1-(cyclopropylsulfonyl-carbamoyl)-2-vinyl-cyclopropyl-carbamoyl)pyrrolidin-3-yl)-2-phenylquinoline-4-carboxamide]: the 50% effective concentration (EC50) is under 1 µM.

Take `C=CC1CC1(NC(=O)[C@@H]1C[C@@H](Oc2cc(-c3ccccc3)nc3cc(OC)ccc23)CN1C(=O)[C@@H](CC(=O)N1CCc2ccccc2C1)C(C)(C)C)C(=O)NS(=O)(=O)C1CC1` (stereo partly drawn) [Compound 40, (2S,4R)-1-((S)-2-tert-butyl-4-(3,4-dihydro-isoquinolin-2(1H)-yl)-4-oxobutanoyl)-N-(1-(cyclopropyl-sulfonyl-carbamoyl)-2-vinylcyclopropyl)-4-(7-methoxy-2-phenylquinolin-4-yloxy)pyrrolidine-2-carboxamide]: the concentration for a half-maximal effect (EC50) was under 1 µM.

As for `C=C[C@@H]1C[C@]1(NC(=O)[C@@H]1C[C@@H](n2nnc(-c3ccccc3)c2-c2ccccc2)CN1C(=O)[C@@H](CC(=O)N1CCCCC1)C(C)(C)C)C(=O)NS(=O)(=O)C1CC1` [Compound 128, (2S,4R)-1-((S)-2-tert-butyl-4-oxo-4-(piperidin-1-yl)butanoyl)-N-((1R,2S)-1-(cyclo-propylsulfonyl-carbamoyl)-2-vinylcyclopropyl)-4-(4,5-diphenyl-1H-1,2,3-triazol-1-yl)pyrrolidine-2-carboxamide], the half-maximal effective concentration (EC50) was 1 to 10 µM.

For `C=C[C@@H]1C[C@]1(NC(=O)[C@@H]1C[C@@H](Oc2cc(-c3ccccn3)nc3cc(OC)ccc23)CN1C(=O)[C@@H](CC(=O)N1CCCCC1)C(C)(C)C)C(=O)NS(=O)(=O)C1CC1` [Compound 165, (2S,4R)-1-((S)-2-tert-butyl-4-oxo-4-(piperidin-1-yl)butanoyl)-N-((1R,2S)-1-(cyclo-propylsulfonyl-carbamoyl)-2-vinyl-cyclopropyl)-4-(7-methoxy-2-(pyridin-2-yl)quinolin-4-yloxy)pyrrolidine-2-carboxamide], the EC50 was under 1 µM.

Regarding `C=C[C@@H]1C[C@]1(NC(=O)[C@@H]1C[C@@H](Oc2cc(-c3ccccc3)nc3cc(OC)ccc23)CN1C(=O)[C@@H](CC(=O)N1CCC2CCCCC2C1)C(C)(C)C)C(=O)NS(=O)(=O)C1CC1` (stereo partly drawn) [Compound 74, (2S,4R)-1-((2S)-2-tert-butyl-4-(octa-hydroisoquinolin-2(1H)-yl)-4-oxobutanoyl)-N-((1R,2S)-1-(cyclo-propylsulfonyl-carbamoyl)-2-vinylcycloprop-yl)-4-(7-methoxy-2-phenylquinolin-4-yloxy)pyrrolidine-2-carboxamide], the EC50 was under 1 µM.

The assay is the same for the next values; noted with them: Hepatitis C virus, Huh-7.
`C=CC1CC1(NC(=O)[C@@H]1C[C@@H](Oc2cc(-c3ccccc3)nc3cc(OC)ccc23)CN1C(=O)[C@@H](CC(=O)N1CCc2ccccc2C1)C(C)(C)C)C(=O)NS(=O)(=O)C1CC1` (stereo partly drawn) [Compound 40, (2S,4R)-1-((S)-2-tert-butyl-4-(3,4-dihydro-isoquinolin-2(1H)-yl)-4-oxobutanoyl)-N-(1-(cyclopropyl-sulfonyl-carbamoyl)-2-vinylcyclopropyl)-4-(7-methoxy-2-phenylquinolin-4-yloxy)pyrrolidine-2-carboxamide] gave an EC50 of at most 10 µM.
